Assay results reported in the supplement of paper PMC10307832.

Key:
Assay in all cases: relative viability (nuclei count vs DMSO), 5 days (fraction); higher = more cells survive
[1] = compound: C1=CC2=C(C=C(C(=C2N=C1)O)N=NC3=CC4=C(C=C3)C=C(C=C4)S(=O)(=O)O)S(=O)(=O)O
Method in brief: (§1)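 Following overnight incubation at 37 °C, lung cancer cell lines in 1536-well plates were pinned with five library-drug doses (not always all listed) in √10 steps on vehicle-anchored plates. The cells then spent 5 days without medium change before a combined fix, permeabilisation and Hoechst stain, 4× imaging and MetaXpress nuclear counts. Viability is the treated-to-vehicle ratio of nuclei, taken as the median across plates. Only plates with control CV below 25% and at least one doubling passed.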

AT-7519 = compound: O=C(NC1CCNCC1)c1n[nH]cc1NC(=O)c1c(Cl)cccc1Cl [AT-7519]
Method in brief: as §1

AT-7519 + Pemetrexed = compound: O=C(NC1CCNCC1)c1n[nH]cc1NC(=O)c1c(Cl)cccc1Cl [AT-7519] + Nc1nc2[nH]cc(CCc3ccc(C(=O)N[C@@H](CCC(=O)O)C(=O)O)cc3)c2c(=O)[nH]1 [Pemetrexed] (partner 0.2 µM)
Method in brief: (§2)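 After 5 days of treatment, lung cancer cells in 1536-well plates were fixed and stained in a single step (final 0.05% Triton X-100, 1% formaldehyde, 1 ug/ml Hoechst) and their nuclei counted on 4× images. Treatment had been applied by pin tool the day after seeding as one drug alone or as a fixed anchor-drug dose with five library-drug doses (not always all listed) in √10 steps. Relative viability is the nuclei count of treated wells divided by that of vehicle wells, and values are medians of duplicate plates.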

[2] = compound: C1=CC2=C(C=C(C(=C2N=C1)O)N=NC3=CC4=C(C=C3)C=C(C=C4)S(=O)(=O)O)S(=O)(=O)O + Cc1nc(NC(=O)N2CCC[C@H]2C(N)=O)sc1-c1ccnc(C(C)(C)C(F)(F)F)c1 [Alpelisib] (partner 2 µM)
Method in brief: as §2

Row | Cell Line | relative viability ([1]; 0.08 µM) | relative viability ([1]; 0.253 µM) | relative viability ([1]; 0.8 µM) | relative viability ([1]; 2.53 µM) | relative viability ([1]; 8 µM) | relative viability (AT-7519; 0.01 µM) | relative viability (AT-7519; 0.03162 µM) | relative viability (AT-7519; 0.3162 µM) | relative viability (AT-7519; 1 µM) | relative viability (AT-7519 + Pemetrexed; first compound 0.01 µM) | relative viability (AT-7519 + Pemetrexed; first compound 0.03162 µM) | relative viability (AT-7519 + Pemetrexed; first compound 0.3162 µM) | relative viability (AT-7519 + Pemetrexed; first compound 1 µM) | relative viability ([2]; first compound 0.08 µM) | relative viability ([2]; first compound 0.253 µM) | relative viability ([2]; first compound 0.8 µM) | relative viability ([2]; first compound 2.53 µM) | relative viability ([2]; first compound 8 µM)
1 | 201T | 1.01 | 0.995 | 0.985 | 1.03 | 0.982 | 1.02 | 0.988 | 1.04 | 1.11 | 0.343 | 0.311 | 0.288 | 0.331 | 1.02 | 0.991 | 0.995 | 1.06 | 1.03
2 | A549 | 1.1 | 0.986 | 0.926 | 1 | 0.884 | 0.978 | 0.903 | 0.931 | 0.792 |  |  |  |  | 0.733 | 0.708 | 0.665 | 0.728 | 0.662
3 | A-427 | 1.05 | 0.971 | 0.936 | 0.963 | 0.842 | 1.11 | 1.02 | 0.944 | 0.723 | 1.06 | 0.965 | 1.07 | 1.01 | 1.19 | 1.07 | 1.09 | 1.08 | 1.17
4 | ABC-1 | 0.923 | 0.743 | 0.744 | 1.08 | 0.776 | 1.1 | 0.876 | 0.787 | 0.699 |  |  |  |  | 1.14 | 0.967 | 1.03 | 0.869 | 1.22
5 | BEN | 0.976 | 0.933 | 0.895 | 0.986 | 0.777 | 0.917 | 0.876 | 1.15 | 0.887 | 0.713 | 0.766 | 0.823 | 0.706 | 1.26 | 0.962 | 0.847 | 1.04 | 0.932
6 | CAL-12T | 1.08 | 0.986 | 0.928 | 1.09 | 0.932 | 0.98 | 1.06 | 0.552 | 0.256 | 1.23 | 1.11 | 0.584 | 0.147 | 1.85 | 1.13 | 1.08 | 1.29 | 1.13
7 | COR-L23 | 1.09 | 1.04 | 1 | 1.05 | 0.946 | 1.12 | 0.865 | 0.936 | 0.424 | 0.182 | 0.184 | 0.211 | 0.173 | 0.818 | 0.691 | 0.728 | 0.704 | 0.593
8 | COR-L 105 | 0.988 | 0.78 | 0.95 | 1.06 | 0.865 | 0.924 | 0.933 | 0.769 | 0.54 | 1.26 | 1.08 | 1.07 | 0.657 | 1.05 | 1.03 | 1.26 | 0.966 | 1.08
9 | Calu-6 | 1 | 1.02 | 0.962 | 1.01 | 1.01 | 1.06 | 0.943 | 1.11 | 0.593 |  |  |  |  | 0.942 | 0.965 | 1.1 | 0.988 | 1.04
10 | ChaGo-K-1 | 1.03 | 0.905 | 0.937 | 1.02 | 0.901 | 1.01 | 0.926 | 0.996 | 0.942 | 0.27 | 0.267 | 0.276 | 0.254 |  |  |  |  | 
11 | EBC-1 | 1.04 | 0.933 | 0.941 | 0.99 | 1.07 | 0.934 | 0.885 | 0.923 | 0.645 |  |  |  |  | 0.822 | 0.854 | 0.743 | 0.813 | 1.03
12 | IA-LM | 1.02 | 0.954 | 0.785 | 0.896 | 0.934 | 0.912 | 0.874 | 0.856 | 0.854 |  |  |  |  | 0.85 | 0.561 | 0.751 | 0.965 | 0.832
13 | NCI-H522 | 0.965 | 0.984 | 0.872 | 1.02 | 0.774 | 0.814 | 0.933 | 0.873 | 0.897 | 0.992 | 0.943 | 1.03 | 0.929 |  |  |  |  | 
14 | NCI-H727 | 1.15 | 0.921 | 0.923 | 0.958 | 0.941 | 0.954 | 0.802 | 0.849 | 0.447 |  |  |  |  | 0.547 | 0.578 | 0.537 | 0.609 | 0.567
15 | NCI-H1299 | 1.02 | 1.01 | 1 | 1.04 | 1 | 1.05 | 1.02 | 1.02 | 1.18 |  |  |  |  | 0.985 | 1.04 | 1.01 | 0.997 | 1.05
16 | NCI-H1648 | 0.747 | 0.816 | 0.677 | 0.682 | 1.04 | 0.877 |  | 0.832 | 0.711 | 0.806 |  | 0.666 | 0.691 |  |  |  |  | 
17 | NCI-H1650 | 0.893 | 0.93 | 0.875 | 0.993 | 0.773 | 0.985 | 1.03 | 0.88 | 0.328 | 0.376 | 0.35 | 0.323 | 0.197 |  |  |  |  | 
18 | NCI-H1703 | 0.942 | 0.772 | 0.99 | 0.884 | 1.04 | 0.865 | 0.845 | 0.866 | 0.261 |  |  |  |  | 0.369 | 0.266 | 0.39 | 0.385 | 0.409
19 | NCI-H2342 | 0.991 | 0.989 | 0.841 | 1.04 | 0.876 | 0.909 | 0.96 | 0.906 | 0.92 | 0.789 | 0.743 | 0.762 | 0.687 |  |  |  |  | 
20 | SW 900 | 1.07 | 0.971 | 0.802 | 0.918 | 0.841 | 0.771 | 0.866 | 0.786 | 0.657 | 0.453 | 0.425 | 0.452 | 0.478 |  |  |  |  | 
